Test results published in the NIST ThermoML archive (doi:10.1016/j.fluid.2004.11.025).
Numbers after ± are expanded uncertainties.

What was measured:
[1] = refractive index (Na D-line) (dimensionless); details: 298.15 K; 101.33 kPa; Liquid; Standard Abbe refractometry
[2] = Liquid; for mass density: 293.15 K, 101.33 kPa; for Normal boiling temperature: Fischer boiling point apparatus

O [water]
refractive index [1]: 1.3324 ± 0.0007

CC(=O)O [acetic acid]
refractive index [1]: 1.3713 ± 0.0007
mass density [2]: 1049.42 ± 0.29 kg/m3
Normal boiling temperature [2]: 118.1 ± 0.2 °C

COC(=O)CCCCC(=O)OC [dimethyl 1,6-hexanedioate]
refractive index [1]: 1.4215 ± 0.0012
mass density [2]: 1061.9 ± 0.61 kg/m3
Normal boiling temperature [2]: 225.1 ± 0.2 °C
